Values quoted from earlier work in patent US7625919B2, “4-azasteroid derivatives as androgen receptor modulators” (priority 2002, dated 2009).

Legend:
[1] = after 7 years of treatment
[2] = postmenopausal osteoporotic women, median of 22 months of treatment

| Compound | increase in spinal BMD [1] [%] | reduction in nonvertebral fractures [2] [%] | reduction in spine fractures [2] [%] |
| --- | --- | --- | --- |
| NCCCC(O)(P(=O)([O-])O)P(=O)(O)O.O.O.O.[Na+] [alendronate, (4-amino-1-hydroxybutylidene)-bis-phosphonate monosodium trihydrate] | 11 |  |  |
| hPTH(1-34): human parathyroid hormone 1-34 fragment (SVSEIQLMHNLGKHLNSMERVEWLRKKLQDVHNF; Parathyroid hormone; UniProt P01270 32-65, looked up, fragment) |  | 54 | ≥ 65 |
